System: fecundity of hamsters
Test: standardized test for capacity to inhibit the fecundity of hamsters (implantation rate)
Type: in vivo, Syrian golden hamsters
Description: The contraceptive utility of the instant compounds is evident from the results of a standardized test for their capacity to inhibit the fecundity of hamsters. In this test, sexually-mature female Syrian golden hamsters weighing at least 105 g are mated; and to each of a group of 5 is administered, daily for 5 days beginning on the first day sperm appears in the vagina between 8:15 and 10:00 a.m., test compound dissolved or suspended in an inert vehicle. The initial daily dose is ordinarily 50 mg/kg in 0.2 ml of corn oil, subcutaneously or intragastrically. A group of such animals to which is likewise administered vehicle alone serves as controls. Approximately 48 hr. after the 5th dose, the animals are sacrificed and their uteri and ovaries inspected for implantation sites and corpora lutea. If the total number of the former divided by the total number of the later (i.e., the implantation rate) affords a value amounting to 0.5 or less, the compound is considered to inhibit fecundity in the foregoing test. The ED50 of such a compound is determined by repeating the test at appropriate doosage(s). Potency is expressed as the ratio of the ED50 of estrone to that of compound.

[1] = mated female Syrian golden hamsters, 10 mg/kg subcutaneously in corn oil, daily for 5 days

CCCCC[C@H](O)/C=C/C1C(C/C=C\CCCC(=O)OC)C(=O)C2OC(=O)OC21 (stereo partly drawn) [Example 1, methyl 7-[tetrahydro-4-(3S-hydroxy-1E-octenyl)-2,6-dioxo-4H-cyclopenta-1,3-dioxol-5-yl]-5Z-heptenoate]
ED50 (Mesocricetus auratus, 120 h, mated female Syrian golden hamsters, daily for 5 days, read-out: ED50 (inhibition of fecundity)): 5.6 mg/kg
implantation rate (total implantation sites divided by total corpora lutea) [1]: 0.16
inhibition of fecundity (implantation rate 0.5 or less) [1]: inhibited fecundity
potency (ratio of the ED50 of estrone to that of compound) (relative to estrone, hamster fecundity test): approximately 1%
